What was measured:
[1] = target: T1, KRAS G12C (amino acids 1-169) (Homo sapiens, UniProt P01116, G12C); assay: SOS-catalyzed nucleotide exchange assay (Procedure B, BODIPY FL GDP displacement); assay type: biochemical; conditions: Procedure B (Example Nos. 18, 21, 23, 33-34); 1 hour incubation, SOS1 + GMPPNP; read-out: KRAS G12C GNE IC50
T1 construct: made in house; host or cells: E. coli
Procedure: (§1) Procedure for SOS-Catalyzed Nucleotide Exchange Assay for KRAS-G12C/D/V (Procedure B)
(§2) Recombinant KRAS G12C (amino acids 1-169, SEQ ID NO:8), KRAS G12D (amino acids 1-169, SEQ ID NO:9), KRAS G12V (amino acids 1-169, SEQ ID NO:10) and SOS1 (amino acids 564-1049, SEQ ID NO:11) proteins were expressed in E. coli and purified by affinity chromatography. To prepare each BODIPY™ FL GDP-bound KRAS mutant protein, 50 μM KRAS mutant proteins were incubated with 0.5 mM BODIPY™ FL GDP (Invitrogen, G22360) in a loading buffer (20 mM Tris-HCl pH 7.5, 50 mM NaCl, 1 mM DTT and 2.5 mM EDTA) for 1 hour on ice. After the incubation, MgCl2 was added to a final concentration of 10 mM, followed by an incubation at room temperature for 30 minutes. The mixtures were allowed to pass through a NAP-5 column to remove free nucleotides and purified BODIPY™ FL GDP-bound KRAS G12C, G12D and G12V proteins were used for compound evaluation.
(§3) The inhibitory activity of compounds on recombinant KRAS mutants is measured by the displacement of the bound BODIPY™ GDP. Specifically, 2.5 nM of each BODIPY™ FL GDP-bound KRAS mutant complex was incubated with various concentrations of compound in a reaction buffer (20 mM Tris-HCl pH 7.5, 100 mM NaCl, 1 mM MgCl2, 2 mM DTT, 0.1% Tween 20) at 25° C. for 1 hour. After the incubation, recombinant SOS1 and GMPPNP (Jena Bioscience GmbH, NU-401) were added and incubated at room temperature for 30 minutes to proceed SOS1-dependent GDP-GTP exchange reaction on KRAS mutants. Displacement of BODIPY™ FL GDP by Guanosine-5′-[(β,γ)-imido]triphosphate, Tetralithium salt (GMPPNP) was measured by calculating the ratio of fluorescence intensities of BODIPY™ FL before and after the exchange reaction. […] Dose response curves were analyzed using a 4-parameter logistic model to calculate IC50 values.
(§4) For Example Nos. 1-17, 19-20, 22, 24-32, and 35-53 nucleotide exchange assays for KRAS G12D, G12C, G12V, and G13D were performed according to Procedure A. For Example Nos. 18, 21, 23, and 33-34, nucleotide exchange assays for KRAS G12D, G12C, and G12V were performed according to Procedure B.

[2] = target: T2, KRAS G12D (amino acids 1-169) (Homo sapiens, UniProt P01116, G12D); assay: as above; assay type: biochemical; conditions: Procedure B (Example Nos. 18, 21, 23, 33-34); 1 hour incubation, SOS1 + GMPPNP; read-out: KRAS G12D GNE IC50
T2 construct: made in house; host or cells: E. coli
Procedure: as §1, §2, §3, §4

[3] = target: T3, KRAS G12V (amino acids 1-169) (Homo sapiens, UniProt P01116, G12V); assay: as above; assay type: biochemical; conditions: Procedure B (Example Nos. 18, 21, 23, 33-34); 1 hour incubation, SOS1 + GMPPNP; read-out: KRAS G12V GNE IC50
T3 construct: made in house; host or cells: E. coli
Procedure: as §1, §2, §3, §4

[4] = target: T4, KRAS-G12C (C51S/C80L/C118S) (Homo sapiens, UniProt P01116, C118S/C51S/C80L/G12C); assay: SOS-catalyzed nucleotide exchange assay (Procedure A, TR-FRET); assay type: biochemical; conditions: 60 min preincubation, SOS + GTP, read-out: KRAS G12C GNE IC50
T4 construct: N-terminal biotin-acceptor peptide […]
How it was run: (§5)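 Preformed biotinylated RAS–Bodipy-GDP/Tb-streptavidin complex preincubated with compound 60 min at room temperature, then SOS plus GTP (3 mM final) added. Exchange times: G13D 30 min, G12C/D 60 min, G12V 90 min. Final RAS/SOS: G12C 3 nM/40 nM, G12D 1 nM/40 nM, G12V 1.25 nM/160 nM, G13D 1.25 nM/0 nM. TR-FRET 520/495 ratio, four-parameter fit.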

[5] = target: T5, KRAS-G12D (Homo sapiens, UniProt P01116, G12D); assay: as above; assay type: biochemical; conditions: 60 min preincubation, SOS + GTP, read-out: KRAS G12D GNE IC50
T5 construct: N-terminal biotin-acceptor peptide […]
How it was run: as §5

[6] = target: T6, KRAS-G12V (Homo sapiens, UniProt P01116, G12V); assay: as above; assay type: biochemical; conditions: 60 min preincubation, SOS + GTP, read-out: KRAS G12V GNE IC50
T6 construct: N-terminal biotin-acceptor peptide […]
How it was run: as §5

[7] = target: T7, KRAS-G13D (Homo sapiens, UniProt P01116, G13D); assay: as above; assay type: biochemical; conditions: 60 min preincubation, GTP, read-out: KRAS G13D GNE IC50
T7 construct: N-terminal biotin-acceptor peptide […]
How it was run: as §5

[8] = target: HRAS (Homo sapiens, UniProt P01112); assay: as above; assay type: biochemical; conditions: 60 min preincubation, SOS + GTP, read-out: HRAS GNE IC50
How it was run: (§6)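 Biotinylated WT-sequence HRAS or NRAS (1.25 nM final) loaded with Bodipy-GDP plus Tb-streptavidin, preincubated 60 min with compound (10-point, 3-fold). Exchange started with human SOS (40 nM) and 3 mM GTP, 60 min at room temperature, pH 7.5 Mg buffer. TR-FRET 520/495 ratio normalised to DMSO and saturating inhibitor, four-parameter fit.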

[9] = target: NRAS (Homo sapiens, UniProt P01111); assay: as above; assay type: biochemical; conditions: 60 min preincubation, SOS + GTP, read-out: NRAS GNE IC50
How it was run: as §6

[10] = system: PANC08.13 cells (homozygous KRAS-G12D activating mutation); assay: Cellular phospho-ERK assay in G12D cell line; assay type: cell-based; conditions: Homo sapiens, PANC-08-13, 2 hours compound incubation, ratio of p-ERK vs. total ERK, read-out: PANC 0813 pERK IC50
How it was run: (§7)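 Cells (10,000-15,000/well) were seeded overnight, then treated for 2 h at 37 °C with a 10-point 1:3 titration from 30 μM final. Lysates were assayed by AlphaLISA SureFire Ultra multiplex, with the p-ERK/total-ERK ratio as read-out; IC50 came from a 4-parameter logistic fit.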

[11] = system: SW620 cells (homozygous KRAS-G12V activating mutation); assay: Cellular phospho-ERK assay in G12V cell line; assay type: cell-based; conditions: Homo sapiens, SW-620, 2 hours compound incubation, ratio of p-ERK vs. total ERK, read-out: SW620 pERK IC50
How it was run: as §7

T1 sequence (P01116 with tags, fused parts or gaps isoform P01116-2 G12C): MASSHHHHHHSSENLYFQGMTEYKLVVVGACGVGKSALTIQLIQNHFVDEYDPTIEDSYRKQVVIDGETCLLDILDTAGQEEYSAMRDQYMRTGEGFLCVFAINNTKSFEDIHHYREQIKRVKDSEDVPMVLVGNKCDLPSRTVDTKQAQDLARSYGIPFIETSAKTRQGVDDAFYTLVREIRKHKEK
T3 sequence (P01116 with tags, fused parts or gaps isoform P01116-2 G12V): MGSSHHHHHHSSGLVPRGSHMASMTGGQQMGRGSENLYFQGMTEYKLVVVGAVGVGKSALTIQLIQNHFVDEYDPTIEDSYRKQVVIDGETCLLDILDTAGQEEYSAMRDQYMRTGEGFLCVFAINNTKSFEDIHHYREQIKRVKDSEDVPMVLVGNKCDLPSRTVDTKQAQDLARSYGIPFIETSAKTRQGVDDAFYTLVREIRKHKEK
T2 sequence (P01116 with tags, fused parts or gaps isoform P01116-2 G12D): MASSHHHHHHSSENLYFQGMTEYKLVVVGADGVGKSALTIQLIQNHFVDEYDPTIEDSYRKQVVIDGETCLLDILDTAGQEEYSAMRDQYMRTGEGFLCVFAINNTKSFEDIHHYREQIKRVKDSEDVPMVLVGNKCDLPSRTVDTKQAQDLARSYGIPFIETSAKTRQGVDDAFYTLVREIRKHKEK
T4 sequence (P01116 with tags, fused parts or gaps isoform P01116-2 G12C/C51S/C80L/C118S): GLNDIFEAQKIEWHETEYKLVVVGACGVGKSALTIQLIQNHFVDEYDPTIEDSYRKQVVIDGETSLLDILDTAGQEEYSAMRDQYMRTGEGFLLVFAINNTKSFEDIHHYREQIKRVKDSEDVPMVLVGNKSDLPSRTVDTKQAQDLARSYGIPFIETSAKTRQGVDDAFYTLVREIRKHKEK
Chain of NRAS (P01111 with tags, fused parts or gaps): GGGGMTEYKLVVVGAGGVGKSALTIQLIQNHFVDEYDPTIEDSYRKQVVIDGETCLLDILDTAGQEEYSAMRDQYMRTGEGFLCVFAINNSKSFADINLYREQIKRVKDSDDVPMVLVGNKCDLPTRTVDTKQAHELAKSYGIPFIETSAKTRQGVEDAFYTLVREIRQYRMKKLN
Chain of HRAS (P01112 with tags, fused parts or gaps): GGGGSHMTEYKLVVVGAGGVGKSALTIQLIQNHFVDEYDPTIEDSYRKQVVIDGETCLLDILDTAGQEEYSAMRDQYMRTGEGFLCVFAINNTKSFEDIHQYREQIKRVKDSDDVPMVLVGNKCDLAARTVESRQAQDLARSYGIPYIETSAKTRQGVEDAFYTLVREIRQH
T7 sequence (P01116 with tags, fused parts or gaps isoform P01116-2 G13D): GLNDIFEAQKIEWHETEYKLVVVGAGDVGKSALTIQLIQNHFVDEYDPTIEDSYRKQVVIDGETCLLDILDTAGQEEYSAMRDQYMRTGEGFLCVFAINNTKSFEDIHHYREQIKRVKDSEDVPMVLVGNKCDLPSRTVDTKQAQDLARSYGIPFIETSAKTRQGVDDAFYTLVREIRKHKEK
T6 sequence (P01116 with tags, fused parts or gaps isoform P01116-2 G12V): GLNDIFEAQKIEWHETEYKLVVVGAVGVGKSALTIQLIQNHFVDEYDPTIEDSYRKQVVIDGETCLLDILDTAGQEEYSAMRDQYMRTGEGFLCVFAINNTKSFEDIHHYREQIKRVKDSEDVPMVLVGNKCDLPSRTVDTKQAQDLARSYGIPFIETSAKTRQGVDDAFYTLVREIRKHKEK
T5 sequence (P01116 with tags, fused parts or gaps isoform P01116-2 G12D): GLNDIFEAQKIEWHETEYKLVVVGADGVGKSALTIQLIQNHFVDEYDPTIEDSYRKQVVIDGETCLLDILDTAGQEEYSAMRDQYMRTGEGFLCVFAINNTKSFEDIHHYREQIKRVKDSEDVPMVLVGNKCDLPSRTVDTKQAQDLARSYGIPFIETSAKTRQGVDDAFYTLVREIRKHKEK

Compound	IC50 [1] [nM]	IC50 [2] [nM]	IC50 [3] [nM]	IC50 [4] [nM]	IC50 [5] [nM]	IC50 [6] [nM]	IC50 [7] [nM]	IC50 [8] [nM]	IC50 [9] [nM]	IC50 [10] [nM]	IC50 [11] [nM]
N#Cc1c(N)sc2c(F)ccc(-c3c(Cl)cc4c(N5CCCOCC5)nc(OC[C@@]56CCCN5C[C@H](F)C6)nc4c3F)c12 (single isomer, unassigned) [Ex. 18]	2.81	5.34	2.91	–	–	–	–	–	–	–	–
N#Cc1c(N)sc2c(F)ccc(-c3c(Cl)cc4c(N5CCCOCC5)nc(OC[C@]5(CO)CC5(F)F)nc4c3F)c12 (single isomer, unassigned) [Ex. 33]	1020	4880	2230	–	–	–	–	–	–	–	–
N#Cc1c(N)sc2c(F)cc(F)c(-c3ncc4c(N5CCCOCC5)nc(OC[C@@]56CCCN5C[C@H](F)C6)nc4c3F)c12 [Ex. 23, 2-amino-5,7-difluoro-4-(8-fluoro-2-(((2R,7aS)-2-fluorotetrahydro-1H-pyrrolizin-7a(5H)-yl)methoxy)-4-(1,4-oxazepan-4-yl)pyrido[4,3-d]pyrimidin-7-yl)benzo[b]thiophene-3-carbonitrile]	33.4	140	76.9	–	–	–	–	–	–	–	–
N#Cc1c(N)sc2c(F)ccc(-c3c(C(F)(F)F)cc4c(N5CCCOCC5)nc(OC[C@@]56CCCN5C[C@H](F)C6)nc4c3F)c12 [Ex. 34, 2-amino-7-fluoro-4-(8-fluoro-2-(((2R,7aS)-2-fluorotetrahydro-1H-pyrrolizin-7a(5H)-yl)methoxy)-4-(1,4-oxazepan-4-yl)-6-(trifluoromethyl)quinazolin-7-yl)benzo[b]thiophene-3-carbonitrile]	1.8	3.43	1.67	–	–	–	–	–	–	–	–
C[C@H]1CCOCCN1c1nc(OC[C@@]23CCCN2C[C@H](F)C3)nc2c(F)c(-c3ccc(F)c4sc(N)c(C#N)c34)ncc12 [compound 21, 2-amino-7-fluoro-4-(8-fluoro-2-(((2R,7aS)-2-fluorotetrahydro-1H-pyrrolizin-7a(5H)-yl)methoxy)-4-((S)-5-methyl-1,4-oxazepan-4-yl)pyrido[4,3-d]pyrimidin-7-yl)benzo[b]thiophene-3-carbonitrile]	20.8	136	63.6	–	–	–	–	–	–	–	–
Cc1cc(N)nc(-c2c(Cl)cc3c(N4CCCOCC4)nc(OC[C@@]45CCCN4C[C@H](F)C5)nc3c2F)c1C(F)(F)F [compound 40, 6-(6-chloro-8-fluoro-2-(((2R,7aS)-2-fluorotetrahydro-1H-pyrrolizin-7a(5H)-yl)methoxy)-4-(1,4-oxazepan-4-yl)quinazolin-7-yl)-4-methyl-5-(trifluoromethyl)pyridin-2-amine]	–	–	–	83.3	351	78.2	204	> 11100	> 11100	807	628
Cc1cc(N)nc(-c2c(Cl)cc3c(N4CCCOCCC4)nc(OC[C@@]45CCCN4C[C@H](F)C5)nc3c2F)c1C(F)(F)F [compound 41, 6-(6-chloro-8-fluoro-2-(((2R,7aS)-2-fluorotetrahydro-1H-pyrrolizin-7a(5H)-yl)methoxy)-4-(1,5-oxazocan-5-yl)quinazolin-7-yl)-4-methyl-5-(trifluoromethyl)pyridin-2-amine]	–	–	–	56.5	125	46.4	75.5	> 11100	> 11100	348	512
